Laboratory results: patent US20100113334A1, “METHODS FOR REDUCING OR PREVENTING TRANSMISSION OF NOSOCOMIAL PATHOGENS IN A HEALTH CARE FACILITY” (priority 2003, published 2010)
Where two headings read alike, the source gives them in different places.

Tests used:
E. faecium = conditions: 10 strains; cited from earlier work
[1] = system: Gram-negative bacteria (enteric bacteria and Bacteroides spp.); experiment: Activity on stool microflora of healthy volunteers (Example 7.1); assay type: in vivo, human; conditions: 10 days BID
Procedure: (§1) The predetermined dose was reconstituted in 5 mL water per vial, mixed with 50 mL of sweetened, aromatized solution, and immediately administered orally to the subjects.
(§2) Faecal microbial concentrations (organisms per gram of faecal matter) were determined at the following timepoints: day-4 (pre-treatment), days 4 and 10 (treatment), and days […] and 24 (follow-up). Tolerability and absorption were also investigated.

[2] = system: Gram-positive bacteria (staphylococci, streptococci, enterococci); experiment: as above; assay type: in vivo, human
Procedure: as §1, §2

yeast = experiment: as above; assay type: in vivo, human; conditions: 10 days BID
Procedure: as §1, §2

VRE [3] = experiment: Prevention of cross-transmission of VRE among mice in communal cages (Example 5); assay type: in vivo
Procedure: One set of experiments was performed to evaluate the ability of ramoplanin to prevent cross-transmission and overgrowth of VRE among mice in communal cages. High-density VRE stool colonization (˜7 log10 CFU/g) was established in 2 mice as described above. […] All mice were treated with subcutaneous clindamycin (1.4 mg) once daily for 5 days. After 9 days, all mice were separated into individual cages and supplied with regular drinking water.

Total Enterococci = experiment: VRE suppression in a mouse model (Example 1), total enterococci in faeces; assay type: in vivo, mice
Text: (§3) Mice were colonized with a clinical isolate VanA strain of E. faecium (VRE) isolated from a septicemic patient. A single inoculation of 5×10^8 cfu VRE by oral gavage (Day 0) was followed by treatment with vancomycin in the drinking water to maintain colonization. On day 22, each group received the same vancomycin-containing drinking water. […] The control group consisted of five mice, while the ramoplanin group consisted of four mice.

[4] = system: indigenous stool microflora; experiment: DGGE of PCR-amplified bacterial ribosomal RNA genes from stool (Example 3); assay type: in vivo, mice; conditions: oral ramoplanin 100 μg/mL in drinking water
[5] = Storage stability of ramoplanin granules for oral solution; assay type: physicochemical
Procedure: The contents of the packet can be reconstituted with approximately 15-30 mL of water, and the resulting solution either consumed directly, or further diluted with water, cranberry juice, apple juice, or 7-Up prior to drinking. After consumption, the drug may be followed with subsequent amounts of these beverages or with food (e.g., cracker, bread). […] Alternatively, ramoplanin is available as capsules containing pharmaceutically acceptable excipients that are generally regarded as safe.

S. aureus (MRSA) = conditions: 100 strains; cited from earlier work
[6] = system: clinical isolate VanA strain of E. faecium (VRE); experiment: VRE suppression in a mouse model (Example 1); assay type: in vivo, mice
Text: as §3

[7] = system: facultative and aerobic gram-negative bacilli; experiment: Effect on indigenous stool microflora (Example 3), quantitative culture; assay type: in vivo, mice
Lactobacillus species = experiment: as above; assay type: in vivo, mice
Procedure: Female CF1 mice (Harlan Sprague-Dawley, Indianapolis) weighing 25-30 g were used in these experiments. In order to minimize the risk of cross-contamination, mice were housed in individual cages with plastic filter tops. […] Quantitative cultures for facultative and aerobic gram-negative bacilli, enterococci, total anaerobes, Bacteroides species, Lactobacillus species, and Clostridium species were performed by plating serially-diluted specimens onto MacConkey agar (Difco Laboratories, Detroit), Enterococcosel agar (Becton Dickinson, Cockeysville, Md.), Brucella agar (Becton Dickinson), Bacteroides bile esculin agar, Rogosa agar, and Egg Yolk agar, respectively. For culture of anaerobes, stool samples were processed inside an anaerobic chamber (Coy Laboratories, Grass Lake, Mich.). Denaturing gradient gel electrophoresis (DGGE) of PCR-amplified bacterial ribosomal RNA genes from stool was performed as described by Donskey et al. (supra).

K. pneumoniae P62 = experiment: Establishment of colonization during ramoplanin treatment (Example 6); assay type: in vivo, mice; conditions: inoculated on day 2 of a 6-day course, 100 μg/ml in drinking water
Procedure: Quantification of Stool Pathogens: Fresh stool specimens were processed as described by Donskey et al. (supra). In order to quantify VRE, K. pneumoniae, and C. glabrata, diluted samples were plated onto Enterococcosel agar containing vancomycin 20 μg/mL, MacConkey agar containing ceftazidime 10 μg/mL, or Sabouraud Dextrose Agar (Becton, Dickinson, and Company, Sparks, Md.) containing piperacillin/tazobactam 16 μg/mL and linezolid 8 μg/mL, respectively. The plates were incubated in room air at 37° C. far 24 or 48 hours, and the number of colony-forming units (CFU) of each pathogen per gram of sample was calculated.
The density of the pathogens in stool was monitored every 3-4 days. Four mice were included in each treatment group.

[8] = system: VRE (VRE faecium, VRE faecalis); experiment: In vitro activity (MIC90), internal Phase II isolates; assay type: cell-based, vancomycin-resistant Enterococcus; conditions: 235 strains, internal Phase II data
Enterococcus species = experiment: Effect on indigenous stool microflora (Example 3), quantitative culture; assay type: in vivo, mice
total anaerobes = experiment: as above; assay type: in vivo, mice; conditions: 100 μg/mL in drinking water, seven days
VRE [9] = experiment: Multiple dose study in asymptomatic carriers of gastro-intestinal VRE (Example 7.2); assay type: in vivo, human; conditions: for patients with no detectable VRE: p<0.01; for patients who remained VRE free: Day 14 (seven days after cessation)
Procedure: Patients were assessed by rectal swab on Days 7, 14, and 21 to determine the presence or absence of VRE. […] All VRE isolates were tested for susceptibility to ramoplanin.

Bacteroides species = experiment: Effect on indigenous stool microflora (Example 3), quantitative culture; assay type: in vivo, mice; conditions: 100 μg/mL in drinking water, seven days
[10] = Day 22, prior to ramoplanin therapy
[11] = Day 29, completion of ramoplanin therapy
[12] = Day 36, 7 days after completion of ramoplanin therapy
[13] = 3 days after discontinuation (day 10)

Substance: Ramoplanin
- Ramoplanin MIC90 (E. faecium): 0.5 µg/mL
- effect on faecal Gram-negative bacteria [1]: no effect
- faecal concentrations of staphylococci, streptococci, and enterococci ([2]; by day 10, all subjects): below the level of detection
- effect on faecal Gram-positive bacteria ([2]; first measurement on day 4): marked effect
- effect on faecal yeast (yeast): no effect
- VRE colonization in the colonized mouse added to the communal cage (VRE [3]; 100 μg/ml in drinking water, clindamycin-treated mice): rapidly inhibited
- VRE colonization of the other mice during ramoplanin treatment (VRE [3]; 100 μg/ml in drinking water, communal cage): none of the other mice developed detectable levels of colonization
- mice with VRE colonization detected after discontinuation of ramoplanin (VRE [3]; within 5 days after transfer to individual cages, 4 of 5 mice): 80%
- Enterococci: Total Enterococci (Total Enterococci; [10]): 9.8 log 10 cfu/g faeces
- Enterococci: Total Enterococci (Total Enterococci; [11]): <2.4 log 10 cfu/g faeces
- Enterococci: Total Enterococci (Total Enterococci; [12]): 8.6 log 10 cfu/g faeces
- ramoplanin in stool (100 μg/ml dose, 3 days after discontinuation (day 10)): no ramoplanin was detectable
- concentration in stool, range (100 μg/ml dose, day 7 of treatment, n=5 mice): 156 to 312.5 µg/g
- concentration in stool, range (300 μg/ml dose, day 7, n=5 mice): 300 to 320 µg/g
- stool DGGE patterns, mean similarity indices in comparison to the pre-treatment patterns [4]: 72%
- stability of 400 mg granulated powder packets ([5]; refrigerated conditions): stable for at least one year
- shelf life of reconstituted aqueous solution ([5]; stored at refrigerated conditions): 48 h
- Ramoplanin MIC90 (S. aureus (MRSA)): 0.25 µg/mL
- % Mice with VRE [6, 10]: 100%
- Enterococci: VRE [6, 10]: 9.7 log 10 cfu/g faeces
- Enterococci: VRE [6, 11]: <3.1 log 10 cfu/g faeces
- % Mice with VRE ([6]; Day 29, completion of ramoplanin therapy (15 mg/kg/day in drinking water, with 25 mg/kg/day vancomycin)): 0%
- % Mice with VRE [6, 12]: 100%
- Enterococci: VRE [6, 12]: 8.7 log 10 cfu/g faeces
- VRE concentration per gram of faeces ([6]; after one week of treatment, all animals): < 3.1 log units
- mean density of total facultative and aerobic gram-negative bacilli in stool [7, 13]: not significantly different from baseline
- mean density of total facultative and aerobic gram-negative bacilli in stool ([7]; day 7 of treatment, P<0.05): increased significantly
- Lactobacillus species in stool (Lactobacillus species; [13]): returned to pre-treatment levels
- Lactobacillus species in stool (Lactobacillus species; ramoplanin treatment, P<0.001): markedly reduced
- overgrowth of K. pneumoniae P62 in stool (K. pneumoniae P62): facilitated overgrowth
- Ramoplanin MIC90 [8]: 0.5 µg/mL
- Enterococcus species in stool (Enterococcus species; at least 11 days after discontinuation (day 18)): remained significantly reduced
- Enterococcus species in stool (Enterococcus species; ramoplanin treatment, P<0.001): significantly reduced
- mean density of total anaerobes in stool (total anaerobes): not significantly affected
- patients with no detectable VRE (VRE [9]; Day 7, 100 mg BID for seven days, 17 of 21 patients): 81.0%
- patients with no detectable VRE (VRE [9]; Day 7, 400 mg BID for seven days, 18 of 20 patients): 90.0%
- patients who remained VRE free (VRE [9]; 100 mg BID, 6 of 21 patients): 28.6%
- patients who remained VRE free (VRE [9]; 400 mg BID, 7 of 17 patients): 41.2%
- number of VRE-free patients (VRE [9]; Day 21): comparable among all treatment groups
- mean density of Bacteroides species in stool (Bacteroides species): not significantly affected
